Source: patent US20200390783A1, “INHIBITORS OF EGFR AND METHODS OF USE THEREOF” (DANA-FARBER CANCER INSTITUTE, INC., priority 2018, published 2020)
Where two headings read alike, the source gives them in different places.

Target: EGFR T790M/L858R Ba/F3 cell line (Homo sapiens, UniProt P00533, T790M/L858R, cells depend on it)
Experiment: Ba/F3 cell proliferation model (MTS assay)
Format: cell-based, murine
Experimental: The EGFR mutant L858R, Del E746_A750, L858R/T790M, DeE746_A750/T790M, L858R/T790M/C797S and Del/T790M/C797S Ba/F3 cells were previously described (Zhou et al., Nature 462, (2009), 1070-1074). All cell lines were maintained in RPMI 1640 (Cellgro; Mediatech Inc., Herndon, Calif.) supplemented with 10% FBS 100 units/mL penicillin, 100 units/mL streptomycin, and 2 mM glutamine. L858R cells were maintained in ACL-4 media (Invitrogen, Carlsbad, Calif.) supplemented with 5% FBS, 100 units/mL penicillin, 100 units/mL streptomycin, and 2 mM glutamine. The EGFR I941R mutation was introduced via site directed mutagenesis using the Quick Change Site-Directed Mutagenesis kit (Stratagene; La Jolla, Calif.) according to the manufacturer's instructions. All constructs were confirmed by DNA sequencing. The constructs were shuttled into the retroviral vector JP1540 using the BD Creator™ System (BD Biosciences). Ba/F3 cells were infected with retrovirus and according to standard protocols, as described previously (Zhou 2009). Stable clones were obtained by selection in puromycin (2 μg/ml).
Growth and inhibition of growth was assessed by MTS assay and was performed according to previously established methods (Zhou 2009). The MTS assay is a colorimetric method for determining the number of viable cells that is based on the bioreduction of MTS by cells to a formazan product that is soluble in cell culture medium and can be detected spectrophotometrically. […] All experimental points were set up in six wells and all experiments were repeated at least three times. […] The curves were fitted using a non-linear regression model with a sigmoidal dose response.

[1] = absence of cetuximab, read-out: Ba/F3 cellular activity (EC50) T790M/L858R
[2] = read-out: Ba/F3 cellular activity (EC50) T790M/L858R + Cetuximab, presence of 1 μg/mL cetuximab

EGFR T790M/L858R Ba/F3 cell line, sequence (P00533 whole entry T790M/L858R): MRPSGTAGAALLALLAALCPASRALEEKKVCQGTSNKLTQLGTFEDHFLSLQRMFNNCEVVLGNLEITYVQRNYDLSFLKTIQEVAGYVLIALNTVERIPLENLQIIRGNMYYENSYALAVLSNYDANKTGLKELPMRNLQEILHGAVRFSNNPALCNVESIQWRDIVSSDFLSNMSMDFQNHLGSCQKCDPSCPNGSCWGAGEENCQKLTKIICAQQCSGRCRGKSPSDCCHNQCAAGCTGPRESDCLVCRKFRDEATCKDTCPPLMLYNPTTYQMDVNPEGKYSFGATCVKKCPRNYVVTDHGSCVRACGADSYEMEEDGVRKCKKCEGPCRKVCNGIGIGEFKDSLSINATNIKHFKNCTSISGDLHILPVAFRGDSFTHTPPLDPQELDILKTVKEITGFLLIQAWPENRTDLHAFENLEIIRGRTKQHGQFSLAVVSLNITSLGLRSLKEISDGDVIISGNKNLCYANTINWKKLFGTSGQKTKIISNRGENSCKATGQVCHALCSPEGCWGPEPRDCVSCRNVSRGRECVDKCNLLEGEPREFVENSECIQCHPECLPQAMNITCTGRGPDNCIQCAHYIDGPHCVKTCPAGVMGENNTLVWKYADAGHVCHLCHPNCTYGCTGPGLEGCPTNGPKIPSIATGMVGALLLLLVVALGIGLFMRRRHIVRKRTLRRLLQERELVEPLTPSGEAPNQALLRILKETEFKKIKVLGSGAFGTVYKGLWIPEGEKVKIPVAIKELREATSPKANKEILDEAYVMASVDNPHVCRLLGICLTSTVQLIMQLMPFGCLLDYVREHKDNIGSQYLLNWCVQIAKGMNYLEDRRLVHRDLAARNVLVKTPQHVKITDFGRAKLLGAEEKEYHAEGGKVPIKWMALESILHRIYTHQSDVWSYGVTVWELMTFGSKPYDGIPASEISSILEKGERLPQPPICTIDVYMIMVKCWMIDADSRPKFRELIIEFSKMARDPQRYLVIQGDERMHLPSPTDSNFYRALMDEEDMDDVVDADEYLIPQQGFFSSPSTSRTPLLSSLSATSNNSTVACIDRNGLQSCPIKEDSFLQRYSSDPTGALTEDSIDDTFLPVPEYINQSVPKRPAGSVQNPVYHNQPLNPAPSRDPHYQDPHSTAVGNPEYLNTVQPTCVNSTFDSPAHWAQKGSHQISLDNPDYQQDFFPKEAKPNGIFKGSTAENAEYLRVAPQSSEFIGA

SMILES | EC50 [1] | EC50 [2]
C=CC(=O)Nc1ccc2c(c1)N(Cc1ccccc1)C(=O)c1cc(-c3ccc4[nH]ccc4c3)ccc1N2 [Compound I-1] | ≥ 750 nM | 500 to 750 nM
O=C(CCl)Nc1ccc2c(c1)N(Cc1ccccc1)C(=O)c1cc(-c3ccc4[nH]ccc4c3)ccc1N2 [Compound I-2] | < 250 nM | < 250 nM
C=CC(=O)Nc1ccc2c(c1)N(Cc1ccccc1)C(=O)c1cc(-c3ccc(N4CCNCC4)cc3)ccc1N2 [Compound I-3, N-(10-Benzyl-11-oxo-2-(4-(piperazin-1-yl)phenyl)-10,11-dihydro-5H-dibenzo[b,e][1,4]diazepin-8-yl)acrylamide] | ≥ 750 nM | ≥ 750 nM
O=C1c2cc(Br)ccc2Nc2ccc(F)cc2N1Cc1ccccc1 [I-a, 10-Benzyl-2-bromo-8-fluoro-5,10-dihydro-11H-dibenzo[b,e][1,4]diazepin-11-one] | ≥ 750 nM | 250 to 500 nM
